# Laboratory results taken from patent publication US11628186B2, “Method and composition for the reduction of viral replication, duration and spread of the COVID-19 and the flu” (priority 2017, dated 2023).
# Key:
# [1] = tested on: patients with Allergic Rhinitis other lung diseases; experiment: Two-year log of 367 patients using the 20 mM sodium pyruvate nasal spray (Table XIII); type: in vivo, human; conditions: healthy patients with no underlying diseases; 20 mm in at least 0.9% sodium chloride
# Description: Table XIII. 367 patients over a two-year period. Each patient was provided with a log page to record the effect of inhaled 20 mM sodium pyruvate surfactant enhancer formula. The FDA has recommended that we do a phase three clinical for Allergic Rhinitis for patients where steroids are counter indicated i.e. Children, pregnant women and diabetics. Percentage measurements in patients with Allergic Rhinitis other lung diseases. 20 mM sodium pyruvate formula in 0.9% saline […] was inhaled. Overall rating was 1-10 with 1 being the most negative and 10 being the best result. The increase in nasal and lung surfactants and nasal and lung nitric oxide inhibited the docking and adhesion of viruses in the patients listed below with especially in patients with diabetes or hypoxemia. All these viruses including coronavirus, the flu (influenza A or B) and rhinovirus were unable to dock on the ACE2 type receptor and reduced the rate, severity, duration and spread of the viruses.
# [2] = tested on: COPD patients with Allergic Rhinitis; experiment: 20 mM sodium pyruvate nasal sprays over three months (Table VI); type: in vivo, human; conditions: 20 mM nasal spray
# [3] = tested on: subjects diagnosed with Severe COPD requiring supplemental oxygen; experiment: SaO2 pilot study, single inhalation dose, blinded cross-over; type: in vivo, human
# Description: A total of five (5) subjects diagnosed with Severe COPD (chronic bronchitis or emphysema) and requiring supplemental oxygen at rest were enrolled in this study at the University of Connecticut. Each subject received a single inhalation dose of either 0.5 mM sodium pyruvate, 5.0 mM sodium pyruvate or 0.9% sodium chloride at each Study Visit. The dose was administered in a blinded cross-over manner at 1 week intervals; such that all subjects received each study compound. Safety and therapeutic efficacy were evaluated by the following measurements: spirometry, expired breath NO level, SaO2, vital signs, and follow-up telephone interviews.
# The study was conducted in four visits: a Screening Visit and Study Visits 1-3. The effect of the inhalation of a single dose of sodium pyruvate (0.5 mM and 5.0 mM) or placebo (0.9% sodium chloride) was studied in a double-blind protocol. The primary efficacy outcome objective was the SaO2 levels for all subjects. In addition, COPD subjects were evaluated by lung function (FEV1 and PEF) and expired breath NO levels obtained just prior to and then at 60 minutes and at 3 hours in the second study, following the administration of the particular sodium pyruvate dose.
# [4] = tested on: isolated perfused rat lungs; experiment: Incorporation of [2-(14)C] labeled pyruvate into lung surfactants; conditions: inhalation studies, without calcium, phosphate and magnesium
# [5] = tested on: patients with various cancers and chronic Hypoxemia; experiment: Cancer trial pilot study; type: in vivo, human; conditions: in saline, without calcium, phosphate and magnesium
# Description: In eleven patients with various cancers and chronic Hypoxemia, five with lung cancer, including three with non-small cell lung cancer and six with various other cancers, […], which increased SaO2 levels in these patients to enhance the effect of the chemotherapy or radiation, and increased the synthesis of lung surfactants in lung alveoli cells to protect normal cells and help reduce hypoxia in cancer cells. These patients inhaled the formula one to two hours before they were treated with cancer drugs or radiation, given by current standard methods, and continued to inhale the surfactant enhancer formula twice a day for the eight weeks following the chemo therapy treatment. Because these patients are older, they often lack good nutritional eating habits, which effects their immune system. Thus, the patients were also given a proprietary diet high in a unique blend of antioxidants, and nutrients, that they consumed every day before and after chemo or radiation. Good nutrition is always a plus when patients undergo chemo or radiation as sited in numerous published articles. The diet specifically designed for patients with cancer and hypoxemia included calcium pyruvate, dicalcium phosphate and magnesium in their components. […]
# [6] = tested on: patients with lung diseases including COPD; experiment: Comparison of inhaled salts of pyruvate, 5 ml of 0.5 mM solution (Table I)
# [7] = 5 ml of 0.5 mM solution, inhaled
compound,measurement,setting,value
"CC(=O)C(=O)[O-].[Na+] [Sodium, sodium pyruvate]",amount of flu or colds reduced,[1],52%
same,duration of the infection symptoms in days reduced,[1],56%
same,Overall Rating 1-10,[2],7
same,Percentage decrease in COPD symptoms,[2],18.0%
same,Percentage decrease in us of RX medications,[2],20%
same,Rating 1-10 Congestion and lung tightness,[2],5
same,Rating 1-10 decrease in shortness of breath,[2],6.0
same,Relief of coughing. Percentage Daily decrease,[2],15%
same,Adverse Events,[3]; 0.5 mM and 5.0 mM single dose,no Adverse Events
same,Nitric oxide levels increased,[3]; 5 mM inhaled solution,19%
same,change in the FEV1 or SaO2 compared to pre inhalation values,[3]; single inhalation of 0.5 mM or 5.0 mM in saline,No significant change
same,incorporation into synthesized phospholipids,[4],not incorporated into synthesized phospholipids
same,raises nitric oxide,[5],19%
same,Increased in FEV-1% lung function,"[6]; 5 ml of 0.5 mM solution in physiological saline, inhaled",13.0%
same,Irritation,[6]; [7],none
same,Percentage Increase in SaO2 over baseline,[6]; [7],0.5%
same,Percentage decrease or increase of Nitric Oxide over baseline,[6]; [7],−19.0%
same,"Relief of congestion, coughing and lung tightness",[6]; [7],5
same,Overall Rating 1-10,"[6]; 5 ml of 0.5 mM solution, 1 most negative, 10 best",8
same,FEV1,[6]; 5 mls of a 0.5 mM pyruvate inhalation solution in COPD and asthmatic patients,≥ 12%
